The compounds below were run against PolQ ATPase enzyme (1-894) (Homo sapiens (Human), UniProt O75417) (assay: Polθ ATPase enzymatic assay (0.5 nM enzyme concentration), ADP-Glo). Conditions: average IC50; 0.5 nM PolQ ATPase enzyme (1-894).
Assay type: biochemical
In short: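 Enzyme (0.5 nM) pre-incubated 15 min at rt with 10-point inhibitor series in 50 mM Tris pH 7.5, 10% glycerol, 5 mM DTT, 10 mM MgCl2, 0.1 mg/ml BSA; reaction started with 20 nM fork DNA and 100 μM ATP, run 180 min at rt. ADP-Glo luminescence; IC50 from 4-parameter variable-slope fit.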

Sequence of PolQ ATPase enzyme (1-894) (O75417 1-894): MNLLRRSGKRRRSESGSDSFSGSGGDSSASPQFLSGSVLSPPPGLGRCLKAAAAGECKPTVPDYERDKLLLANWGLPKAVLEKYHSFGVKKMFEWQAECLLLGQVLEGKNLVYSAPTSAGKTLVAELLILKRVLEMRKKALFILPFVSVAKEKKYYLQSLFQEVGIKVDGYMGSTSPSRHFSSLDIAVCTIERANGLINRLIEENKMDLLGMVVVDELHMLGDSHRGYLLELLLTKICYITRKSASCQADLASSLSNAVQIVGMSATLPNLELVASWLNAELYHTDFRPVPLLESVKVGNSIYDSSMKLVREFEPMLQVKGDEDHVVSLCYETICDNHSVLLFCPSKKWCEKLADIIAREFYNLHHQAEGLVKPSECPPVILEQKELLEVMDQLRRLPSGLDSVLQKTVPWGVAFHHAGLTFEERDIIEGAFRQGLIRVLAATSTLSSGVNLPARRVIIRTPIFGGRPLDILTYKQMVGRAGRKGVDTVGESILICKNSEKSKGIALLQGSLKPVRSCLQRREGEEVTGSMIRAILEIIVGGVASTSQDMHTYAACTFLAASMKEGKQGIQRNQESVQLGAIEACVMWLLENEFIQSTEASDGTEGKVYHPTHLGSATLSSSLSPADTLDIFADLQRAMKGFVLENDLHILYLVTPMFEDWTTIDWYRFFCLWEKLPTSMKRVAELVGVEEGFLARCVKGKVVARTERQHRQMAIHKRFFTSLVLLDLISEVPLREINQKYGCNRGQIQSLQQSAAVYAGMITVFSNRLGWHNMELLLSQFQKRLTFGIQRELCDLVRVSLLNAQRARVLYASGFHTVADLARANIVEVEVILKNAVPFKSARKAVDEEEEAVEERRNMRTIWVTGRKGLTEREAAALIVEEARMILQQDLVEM

| IC50 [nM] | SMILES |
| --- | --- |
| < 0.25 | COc1ccc(C(F)F)cc1-c1cc(C(=O)N(C)C)ncc1C(=O)Nc1nnc(C#CC2CC2)s1 [Compound 293] |
| < 0.25 | COc1cnc(C(F)F)cc1-c1cc(-n2ccc(C(F)(F)F)cc2=O)ncc1C(=O)Nc1nnc(C#CC2CC2)s1 [Compound 445] |
| 3.6 | COc1cnc(C(F)F)cc1-c1cc(C#CC2(O)CCS(=O)(=O)CC2)ccc1C(=O)Nc1ncc(C#CC2CC2)s1 [Compound 238] |
| < 0.25 | COc1cnc(C(F)F)cc1-c1cc(-n2ccc(C)c(C)c2=O)ncc1C(=O)Nc1nnc(C#CC2CC2)s1 [Compound 467] |
| 2.4 | O=C(Nc1nnc(C#CC2CC2)s1)c1cc2ncnn2cc1-c1cc(Cl)ncc1OC(F)F [Compound 50] |
| 0.41 | COc1cnc(C(F)F)cc1-c1cc(N2CCO[C@H](C)C2=O)ncc1C(=O)Nc1nnc(C#CC2CC2)s1 [Compound 173] |
| 7.1 | COc1cnc(C(F)F)cc1-c1cc(N2C(=O)[C@@H]3CC[C@H]2C3)ncc1C(=O)Nc1nnc(C#CC2CC2)s1 [Compound 368] |
| < 0.25 | [2H]C([2H])([2H])N(C(C)=O)c1ccc(C(=O)Nc2nnc(C#CC3CC3)s2)c(-c2cc(C(F)F)ncc2OC)c1 [Compound 232] |
| 1.5 | Cc1cnc(C(F)F)cc1-c1cnccc1C(=O)Nc1nnc(C#CC2CC2)s1 [Compound 279] |
| 0.39 | COc1cnc(C(F)F)cc1-c1cc(-c2cnn(C3COC3)c2)ccc1C(=O)Nc1nnc(C#CC2CC2)s1 [Compound 372] |
| < 0.25 | CNC(=O)Cn1cc(-c2cc(Cl)ncc2OC(F)F)c(C(=O)Nc2nnc(C#CC3CC3)s2)cc1=O [Compound 77] |
| 3.1 | COc1cnc(C(F)F)cc1-c1cnccc1C(=O)Nc1nnc([C@H]2C[C@@H]2c2ccc(C#N)cc2)s1 [Compound 275] |
| < 0.25 | COc1cnc(C(F)F)cc1-c1cc(-c2cnn(S(C)(=O)=O)c2)ncc1C(=O)Nc1nnc(C#CC2CC2)s1 [Compound 393] |
| < 0.25 | COc1cnc(C(F)F)cc1-c1cc(C#CC2(O)CCOCC2)ccc1C(=O)Nc1nnc(C#CC2CC2)s1 [Compound 283] |
| 1.4 | COc1cnc(C(F)F)cc1-c1cc(C2C[C@@H]2C(=O)N(C)C)ccc1C(=O)Nc1nnc(C#CC2CC2)s1 (stereo partly drawn) [Compound 362] |
| < 0.25 | COc1cnc(C(F)F)cc1-c1cc(N2CCC3CCC3C2=O)ncc1C(=O)Nc1nnc(C#CC2CC2)s1 (stereo not drawn) [Compound 443] |
| 2.2 | COc1cnc(Cl)cc1-c1cc(-c2cccnn2)ccc1C(=O)Nc1nnc(C#CC2CC2)s1 [Compound 45] |
| 19 | COc1cnc(C(F)F)cc1-c1cc(N2CCOCC2)ncc1C(=O)Nc1nnc(C#CC2CC2)s1 [Compound 235] |
| 4.3 | COc1cnc(Cl)nc1-c1cn(C)c(=O)cc1C(=O)Nc1nnc(C#CC2CC2)s1 [Compound 335] |
| < 0.25 | COc1cnc(C(F)F)cc1-c1cc(CC(=O)N2CC(F)(F)C2)ncc1C(=O)Nc1nnc(C#CC2CC2)s1 [Compound 446] |

| IC50 [nM] | SMILES |
| --- | --- |
| 34 | COc1cnc(Cl)cc1-c1cc(C2(C(=O)N(C)C)CC2)ccc1C(=O)Nc1nnc(C#CC2CC2)s1 [Compound 234] |
| < 0.25 | COc1cnc(C(F)F)cc1-c1cc(C#CCN2CCNC2=O)ccc1C(=O)Nc1nnc(C#CC2CC2)s1 [Compound 197] |
| 0.91 | COc1cnc(C(F)F)cc1-c1cc(-c2cn(C)cn2)ncc1C(=O)Nc1nnc(C#CC2CC2)s1 [Compound 187] |
| 0.56 | COc1ccc(C(F)(F)F)cc1-c1cnccc1C(=O)Nc1nnc(C#CC2CC2(C)C)s1 (stereo not drawn) [Compound 306] |
| < 0.25 | COc1cnc(C(F)F)cc1-c1cc(-c2cncn2C)ncc1C(=O)Nc1nnc(C#CC2CC2)s1 [Compound 405] |
| < 0.25 | COc1cnc(C(F)F)cc1-c1cc(N2CCCC(C)(C)C2=O)ncc1C(=O)Nc1nnc(C#CC2CC2)s1 [Compound 442] |
| 1.6 | COc1cnc(C(F)F)cc1-c1cc(CN2CCN(C)C2=O)ccc1C(=O)Nc1nnc(C#CC2CC2)s1 [Compound 231] |
| < 0.25 | COc1cnc(C(F)F)cc1-c1cc(N2CCOCC2=O)ncc1C(=O)Nc1nnc(C#CC2CC2)s1 [Compound 110, N-(5-(cyclopropylethynyl)-1,3,4-thiadiazol-2-yl)-2′-(difluoromethyl)-5′-methoxy-6-(3-oxomorpholino)-[4,4′-bipyridine]-3-carboxamide] |
| 0.87 | COc1cnc(C(F)F)cc1-c1cc(C#N)ncc1C(=O)Nc1nnc(C#CC2CC2)s1 [Compound 313] |
| < 0.25 | COc1cnc(C(F)F)cc1-c1cc(N2CCC3CC3C2=O)ncc1C(=O)Nc1nnc(C#CC2CC2)s1 (stereo not drawn) [Compound 142] |
| < 0.25 | COc1cnc(C(F)F)cc1-c1cc(C#CC2CCOCC2)ncc1C(=O)Nc1nnc(C#Cc2cc(C)[nH]n2)s1 [Compound 378] |
| 1.9 | COc1cnc(C(F)F)cc1-c1cc(-c2cnn(C3CCOCC3)c2)ccc1C(=O)Nc1nnc(C#CC2CC2)s1 [Compound 188] |
| < 0.25 | COc1cnc(C(F)F)cc1-c1cc(-n2cc(F)ccc2=O)ncc1C(=O)Nc1nnc(C#CC2CC2)s1 [Compound 413] |
| 4.6 | COc1cnc(C(F)F)cc1-c1cc(OCC2CC2)ncc1C(=O)Nc1nnc(C#CC2CC2)s1 [Compound 180] |
| 4.7 | COc1cnc(C(F)(F)F)nc1-c1cnccc1C(=O)Nc1nnc(C#CC2CC2)s1 [Compound 338] |
| 0.4 | COc1ccc(C(F)F)cc1-c1cn2cc(C(=O)N(C)C)nc2cc1C(=O)Nc1nnc(C#CC2CC2)s1 [Compound 324] |
| < 0.25 | COc1cnc(Cl)cc1-c1cc(C#CC2(O)CCS(=O)(=O)CC2)ccc1C(=O)Nc1nnc(C#CC2CC2)s1 [Compound 288] |
| < 0.25 | COc1cnc(C(F)F)cc1-c1cc(Oc2nccs2)ccc1C(=O)Nc1nnc(C#CC2CC2)s1 [Compound 301] |
| 0.31 | COc1cnc(C(F)F)cc1-c1cc(OC[C@@H]2CCC(=O)N2C)ncc1C(=O)Nc1nnc(C#CC2CC2)s1 [Compound 147] |
| 2.1 | COc1cnc(C(F)F)cc1-c1cc(N2CC(C)(C)N(C)CC2=O)ncc1C(=O)Nc1nnc(C#CC2CC2)s1 [Compound 471] |

| IC50 [nM] | SMILES |
| --- | --- |
| 0.36 | COc1cnc(Cl)cc1-c1cnccc1C(=O)Nc1nnc(C2CC2c2ccc(OC(F)F)cc2)s1 (stereo not drawn) [Compound 62] |
| 6.6 | COc1cnc(C(F)F)cc1-c1cn2ncnc2cc1C(=O)Nc1nnc(C#CC2CC2)s1 [Compound 36, N-(5-(cyclopropylethynyl)-1,3,4-thiadiazol-2-yl)-6-(2-(difluoromethyl)-5-methoxypyridin-4-yl)-[1,2,4]triazolo[1,5-a]pyridine-7-carboxamide] |
| 0.3 | COc1cnc(C(F)F)cc1-c1cc(-c2cnn(C3CCOCC3)c2)ncc1C(=O)Nc1nnc(C#CC2CC2)s1 [Compound 355] |
| 4.1 | COc1cnc(Cl)cc1-c1cncc(F)c1C(=O)Nc1nnc(C#CC2CC2)s1 [Compound 327] |
| < 0.25 | COc1cnc(C(F)F)cc1-c1cc(N2CCN(C(=O)OC(C)C)CC2=O)ncc1C(=O)Nc1nnc(C#CC2CC2)s1 [Compound 382] |
| < 0.25 | COc1cnc(C(F)F)cc1-c1cc(-c2oc(C)nc2C)ncc1C(=O)Nc1nnc(C#CC2CC2)s1 [Compound 409] |
| 0.75 | COc1cnc(C(F)F)cc1-c1cn(C)c(=O)cc1C(=O)Nc1nnc(C#CC2CC23CC3)s1 (stereo not drawn) [Compound 49] |
| 0.0492 | Cc1cnn(-c2cc(-c3cc(C(F)F)ncc3Cl)c(C(=O)Nc3nnc(C#CC4CC4)s3)cn2)c(=O)c1 [Compound 470] |
| 0.78 | COc1cnc(C(F)F)cc1-c1cc(-c2nnc(C)o2)ccc1C(=O)Nc1nnc(C#CC2CC2)s1 [Compound 111, N-(5-(cyclopropylethynyl)-1,3,4-thiadiazol-2-yl)-2-(2-(difluoromethyl)-5-methoxypyridin-4-yl)-4-(5-methyl-1,3,4-oxadiazol-2-yl)benzamide] |
| < 0.25 | COc1cnc(C(F)F)cc1-c1cc(N2CC[C@H]3C[C@H]3C2=O)ncc1C(=O)Nc1nnc(C#CC2CC2)s1 [Compound 383] |
| 2.8 | [2H]C([2H])([2H])Oc1cnc(C(F)F)cc1-c1cc(-c2nnc(C)o2)ccc1C(=O)Nc1nnc(C#CC2CC2)s1 [Compound 406] |
| < 0.25 | COc1cnc(C(F)F)cc1-c1cc(-n2cc(C)ccc2=O)ncc1C(=O)Nc1nnc(C#CC2CC2)s1 [Compound 440] |
| < 0.25 | COc1cnc(C(F)F)cc1-c1cc(N2CCC(C(C)(C)C)CC2=O)ncc1C(=O)Nc1nnc(C#CC2CC2)s1 (stereo not drawn) [Compound 444] |
| < 0.25 | COc1cnc(C(F)F)cc1-c1cc(N2CCOC3(CC3)C2=O)ncc1C(=O)Nc1nnc(C#CC2CC2)s1 [Compound 158] |
| 10 | C#CC1CC1c1nnc(NC(=O)c2ccc(N3CCOCC3=O)cc2-c2cc(C(F)F)ncc2OC)s1 (stereo not drawn) [Compound 396] |
| 0.62 | COc1cnc(C(F)F)cc1-c1cc(-n2cccn2)ncc1C(=O)Nc1nnc(C#CC2CC2)s1 [Compound 261] |
| 11 | COc1cnc(C(F)F)cc1-c1cc(N2CC(C)(C)CC2=O)ncc1C(=O)Nc1nnc(C#CC2CC2)s1 [Compound 380] |
| 0.26 | COc1cnc(C(F)F)cc1-c1cc(C2CCN(C)C2=O)ccc1C(=O)Nc1nnc(C#CC2CC2)s1 (stereo not drawn) [Compound 282] |
| 1.2 | COc1cnc(C(F)F)cc1-c1cc(Cl)ncc1C(=O)Nc1nc(C#N)c(C#CC2CC2)s1 [Compound 259] |
| 1.6 | COc1ccc(C(F)(F)F)cc1-c1cn2ncnc2cc1C(=O)Nc1nnc(C#Cc2cc(C)[nH]n2)s1 [Compound 86] |

| SMILES | IC50 [nM] |
| --- | --- |
| COc1cnc(C(F)F)cc1-c1cc(OCc2ccn(C)n2)ncc1C(=O)Nc1nnc(C#CC2CC2)s1 [Compound 183] | 0.49 |
| COc1cnc(C(F)F)cc1-c1cc(Nc2nnc(C)o2)ccc1C(=O)Nc1nnc(C#CC2CC2)s1 [Compound 152] | 1.2 |
| COc1cnc(C(F)F)cc1-c1cc(Oc2ccn(C)n2)ncc1C(=O)Nc1nnc(C#CC2CC2)s1 [Compound 175] | 0.51 |

— patent US20250026748A1, “N-(5-SUBSTITUTED-[(1,3,4-THIADIAZOLYL) OR (THIAZOLYL)])(SUBSTITUTED)CARBOXAMIDE COMPOUNDS AND USE THEREOF FOR INHIBITING HUMAN POLYMERASE THETA” (Repare Therapeutics Inc., priority 2021, published 2025)
